{
  "source": "patent US12122833B2",
  "about": "“Combination therapies of HDAC inhibitors and PD-1 inhibitors” (HUYABIO International, LLC, priority 2016, dated 2024)",
  "key": {"[1]": {"tested_on": "MC38 murine colon carcinoma", "test": "Example 3: second-line therapy after PD-L1 inhibitor antibody failure, MC38 syngeneic model in C57BL/6 mice", "type": "in vivo, mouse", "text": "In this model, a proportion of the animals treated 1st line with the PD-L1 checkpoint inhibitor antibody experience complete tumor regression. However, a similar proportion of animals treated 1st line with the PD-L1 inhibitor antibody experience rapid tumor progression. The balance of the animals treated in this way experience slow tumor progression or stable disease, which is a result which approximates the situation in a number of human cancer patients receiving PD-L1 inhibitor antibody therapy, i.e., they experience a transient partial response, including stable disease, but then develop resistance and rapidly progress, failing PD-1 inhibitor antibody therapy. In this example, the efficacy of HBI-8000 as a second-line therapy, alone and in combination with PD-1 inhibitor antibody RMPI-14, was evaluated for the ability to cause tumor growth delay (TGD) in animals which tumors which are progressing following PD-L1 inhibitor antibody first line therapy in the MC38 murine colon carcinoma syngeneic model in immunocompetent C57BL/6 mice.\nFemale C57BL/6 mice bearing subcutaneous MC38 tumors (mean tumor volume: 114 mm^3 when treatment began) were treated with a first line of therapy of PD-L1 inhibitor antibody treatment, administered intraperitoneally (i.p.) at 5 mg/kg, twice weekly for two weeks (biwk×2). […] Dosing began on D1, which represents the day of recruitment and varied among mice (this was normalized for each group). The second-line therapies were as follows. Vehicle was administered orally (p.o.). HBI-8000 was administered p.o. at 50 mg/kg. PD-1 inhibitor antibody and anti-PDL-1 were administered intraperitoneally (i.p) at 5 mg/kg. Group 1 mice served as controls and received 0.2% carboxymethyl cellulose: 0.1% Tween 80 in deionized water (vehicle) once daily for twenty-one days (qd×21). Group 2 received HBI-8000 qd×21. Group 3 received a second course of PD-L1 inhibitor antibody biwk×2. Group 4 received HBI-8000 qd×21 and PD-L1 inhibitor antibody biwk×2. Group 5 received anti-PD-1 biwk×2. Group 6 received HBI-8000 qd×21 and anti-PD-1 biwk×2. The study endpoint was tumor volume of 1500 mm^3 or 45 days, whichever came first. Tumor measurements were taken twice weekly until D44 with individual animals exiting the study upon reaching the tumor volume endpoint.\nTumor Implantation and Measurement: Details of tumor implantation and measurement of tumor growth used in this example can be found in Example 1. In this example, each mouse was inoculated subcutaneously in the right flank with 5×10^5 cells (0.1 mL of cell suspension).\nTest Articles: HUYA Bioscience International provided HBI-8000 (Lot No. 1384:0033). PD-1 inhibitor antibody RMPI-14 (Lot No. 5611-10/0615) and PDL-1 antibody 10F.9G2 (anti-PDL-1, Lot No. 5786-7-8/0815) were purchased from Bio X cell (West Lebanon, N.H.). All agents were prepared according to protocol instructions.\nDosing Solutions: HBI-8000 was prepared by diluting in 0.2% CMC: 0.1% Tween 80 to yield a 5 mg/mL dosing solution. Dosing solutions were prepared fresh weekly and stored at 4° C. PD-1 inhibitor antibody dosing solution was prepared by diluting an aliquot of the stock (8.62 mg/mL) to 0.5 mg/mL in sterile PBS. The dosing solution was prepared twice weekly and stored at 4° C. Anti-PDL-1 antibody dosing solution was prepared by diluting an aliquot of the stock (5.37 mg/mL) to 0.5 mg/mL in sterile PBS. The anti-PDL-1 antibody dosing solution was prepared twice weekly and stored at 4° C.\nTreatment: For the initial PD-L1 inhibitor antibody failure part of this study, 150 C57BL/6 mice were dosed i.p. with first line PD-L1 inhibitor antibody at 5 mg/kg, biwk×2. Animals that met the criteria for reenrollment comprised the efficacy study; this included animals with two consecutive increases in tumor volume and tumor volumes below 500 mm^3. […]"}, "HDAC 11": {"target": "T1, HDAC 11 (Homo sapiens, UniProt Q96DB2)", "T1 sequence (Q96DB2 1-347)": "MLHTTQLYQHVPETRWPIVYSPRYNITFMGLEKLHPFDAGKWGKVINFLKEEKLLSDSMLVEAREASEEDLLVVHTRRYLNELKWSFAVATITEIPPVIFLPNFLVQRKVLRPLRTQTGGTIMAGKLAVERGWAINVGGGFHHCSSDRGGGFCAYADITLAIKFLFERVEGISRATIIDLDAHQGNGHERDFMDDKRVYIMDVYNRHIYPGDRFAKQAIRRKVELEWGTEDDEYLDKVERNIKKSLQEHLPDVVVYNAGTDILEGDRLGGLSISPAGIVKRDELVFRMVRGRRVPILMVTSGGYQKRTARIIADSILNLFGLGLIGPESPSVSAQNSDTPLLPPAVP", "conditions": "cited from earlier work"}, "[2]": {"conditions": "HBI-8000 50 mg/kg p.o. qd×21, antibodies 5 mg/kg i.p., vs vehicle"}},
  "data": [
    {"molecule": "Nc1cc(F)ccc1NC(=O)c1ccc(CNC(=O)/C=C/c2cccnc2)cc1", "note": "[HBI-8000, N-(2-amino-4-fluorophenyl)-4-[[[(2E)-1-oxo-3-(3-pyridinyl)-2-propen-1-yl]amino]methyl]benz amide]", "values": [
      {"measurement": "Median TTE", "setting": "[1]; HBI-8000 50 mg/kg p.o. qd×21, antibodies 5 mg/kg i.p., endpoint 1500 mm^3 or 45 days, n=10", "result": 11.4, "unit": "days"},
      {"measurement": "% TGD", "setting": "[1]; [2]", "result": 31.8, "unit": "%"},
      {"measurement": "Mean T-C", "setting": "[1]; [2]", "result": 3.0, "unit": "days"},
      {"measurement": "CR (complete response), number of animals", "setting": "[1]; n=10 per group", "result": 1},
      {"measurement": "NR (no response), number of animals", "setting": "[1]; n=10 per group", "result": 8},
      {"measurement": "PR (partial response), number of animals", "setting": "[1]; n=10 per group", "result": 1},
      {"measurement": "activity at HDAC 11", "setting": "HDAC 11", "result": "has activity"},
      {"measurement": "activity at HDAC 11 compared with Entinostat", "setting": "HDAC 11; reported by Ning et al.", "result": "more active than Entinostat"}
    ]}
  ]
}
